Laboratory results reported in patent US20030162803A1, “Anhydrovinblastine for the treatment of cancer” (priority 1997, published 2003).
Structures can show the parent of a compound that is named as a salt.

Assays:
[1] = Phase I clinical trial, pharmacokinetics (serum, HPLC, 2-compartment model); type: in vivo, human patients; parameters: AUC: unit not given here
Experimental: AHVB blood serum concentrations were measured at 0, 0.33, 0.67, 1, 1.25, 1.5, 2, 4, 6, 8, 12, 24, 48, and 72 hrs after the start of each infusion. […] The serum extracts were assayed using high pressure liquid chromatography (HPLC) and were fit to a 2-compartment pharmacokinetic model for determination of pharmacokinetic parameters (see Table 5).
There appears to be no significant change in clearance observed between smaller and larger doses (p>0.2 by linear regression). […] Similarly, AUC appeared to increase linearly with dose (r^2=0.82, p<0.05) (FIG. 12).

[2] = Toxicological studies in rats; type: in vivo
[3] = tested on: SK0V3 cells; experiment: Cytotoxicity assay, SKOV3 (FIG. 8); type: cell-based; conditions: 3 day incubation
Experimental: The IC50s for the SK0V3 and C-4 cells were 4.0 μM and 0.02 μM respectively. Both cell lines were obtained from the ATCC and grown using standard growth techniques and medium as described above. The IC50s were determined through standard cytoxicity assays described above, with each well containing approximately 10^4 cells.

[4] = tested on: H460 human non-small cell lung carcinoma, C-4 human cervical carcinoma, K562 human leukaemia, and the A431 human epidermoid cell lines; experiment: MTT cytotoxicity assay, 72 hours, panel of human cancer cell lines; type: cell-based
[5] = tested on: nerves; conditions: vs vinblastine, vindesine; cited from earlier work

CCC1=C[C@H]2CN(CCc3c([nH]c4ccccc34)[C@@](C(=O)OC)(c3cc4c(cc3OC)N(C)[C@H]3[C@@](O)(C(=O)OC)[C@H](OC(C)=O)[C@]5(CC)C=CCN6CC[C@]43[C@@H]65)C2)C1 [AHVB, 3′,4′-anhydrovinblastine]
pharmacokinetics, dose linearity ([1]; 2.5-30 mg/m^2, 1 hour infusion): linear
T1/2 al ([1]; All Data, N 20, Max): 23.6 min
T1/2 be ([1]; All Data, N 20, Max): 63.10 h
T1/2 al (alpha half-life) ([1]; All Data, N 20, Mean): 11.4 min
T1/2 be (beta half-life) ([1]; All Data, N 20, Mean): 20.8 h
T1/2 al ([1]; All Data, N 20, Median): 10.2 min
T1/2 be ([1]; All Data, N 20, Median): 17.60 h
T1/2 al ([1]; All Data, N 20, Min): 4.2 min
T1/2 be ([1]; All Data, N 20, Min): 6.63 h
A ([1]; dose 2.5 mg/m^2, N 1, Value): 134.71 ng/mL
AUC ([1]; dose 2.5 mg/m^2, N 1, Value): 71.64
B ([1]; dose 2.5 mg/m^2, N 1, Value): 5.03 ng/mL
Cmax ([1]; dose 2.5 mg/m^2, N 1, Value): 28.23 ng/mL
T1/2 al ([1]; dose 2.5 mg/m^2, N 1, Value): 7.2 min
T1/2 be ([1]; dose 2.5 mg/m^2, N 1, Value): 6.63 h
A ([1]; dose 5 mg/m^2, N 3, Max): 531.52 ng/mL
AUC ([1]; dose 5 mg/m^2, N 3, Max): 793.39
B ([1]; dose 5 mg/m^2, N 3, Max): 9.73 ng/mL
Cmax ([1]; dose 5 mg/m^2, N 3, Max): 62.40 ng/mL
T1/2 al ([1]; dose 5 mg/m^2, N 3, Max): 10.2 min
T1/2 be ([1]; dose 5 mg/m^2, N 3, Max): 63.13 h
A ([1]; dose 5 mg/m^2, N 3, Mean): 281.82 ng/mL
AUC ([1]; dose 5 mg/m^2, N 3, Mean): 571.75
B ([1]; dose 5 mg/m^2, N 3, Mean): 8.04 ng/mL
Cmax ([1]; dose 5 mg/m^2, N 3, Mean): 51.37 ng/mL
T1/2 al ([1]; dose 5 mg/m^2, N 3, Mean): 8.4 min
T1/2 be ([1]; dose 5 mg/m^2, N 3, Mean): 44.36 h
A ([1]; dose 5 mg/m^2, N 3, Median): 178.39 ng/mL
AUC ([1]; dose 5 mg/m^2, N 3, Median): 639.67
B ([1]; dose 5 mg/m^2, N 3, Median): 8.11 ng/mL
Cmax ([1]; dose 5 mg/m^2, N 3, Median): 53.07 ng/mL
T1/2 al ([1]; dose 5 mg/m^2, N 3, Median): 10.2 min
T1/2 be ([1]; dose 5 mg/m^2, N 3, Median): 42.41 h
A ([1]; dose 5 mg/m^2, N 3, Min): 135.55 ng/mL
AUC ([1]; dose 5 mg/m^2, N 3, Min): 282.20
B ([1]; dose 5 mg/m^2, N 3, Min): 6.27 ng/mL
Cmax ([1]; dose 5 mg/m^2, N 3, Min): 38.65 ng/mL
T1/2 al ([1]; dose 5 mg/m^2, N 3, Min): 4.2 min
T1/2 be ([1]; dose 5 mg/m^2, N 3, Min): 27.54 h
A ([1]; dose 10 mg/m^2, N 1, Value): 109.85 ng/mL
AUC ([1]; dose 10 mg/m^2, N 1, Value): 247.19
B ([1]; dose 10 mg/m^2, N 1, Value): 11.49 ng/mL
Cmax ([1]; dose 10 mg/m^2, N 1, Value): 48.57 ng/mL
T1/2 al ([1]; dose 10 mg/m^2, N 1, Value): 15 min
T1/2 be ([1]; dose 10 mg/m^2, N 1, Value): 12.50 h
A ([1]; dose 16.5 mg/m^2, N 5, Max): 816.42 ng/mL
AUC ([1]; dose 16.5 mg/m^2, N 5, Max): 1791.22
B ([1]; dose 16.5 mg/m^2, N 5, Max): 34.16 ng/mL
Cmax ([1]; dose 16.5 mg/m^2, N 5, Max): 231.52 ng/mL
T1/2 al ([1]; dose 16.5 mg/m^2, N 5, Max): 23.4 min
T1/2 be ([1]; dose 16.5 mg/m^2, N 5, Max): 33.52 h
A ([1]; dose 16.5 mg/m^2, N 5, Mean): 509.47 ng/mL
AUC ([1]; dose 16.5 mg/m^2, N 5, Mean): 824.58
B ([1]; dose 16.5 mg/m^2, N 5, Mean): 22.50 ng/mL
Cmax ([1]; dose 16.5 mg/m^2, N 5, Mean): 163.03 ng/mL
T1/2 al ([1]; dose 16.5 mg/m^2, N 5, Mean): 13.2 min
T1/2 be ([1]; dose 16.5 mg/m^2, N 5, Mean): 21.35 h
A ([1]; dose 16.5 mg/m^2, N 5, Median): 478.82 ng/mL
AUC ([1]; dose 16.5 mg/m^2, N 5, Median): 541.21
B ([1]; dose 16.5 mg/m^2, N 5, Median): 21.87 ng/mL
Cmax ([1]; dose 16.5 mg/m^2, N 5, Median): 171.48 ng/mL
T1/2 al ([1]; dose 16.5 mg/m^2, N 5, Median): 12 min
T1/2 be ([1]; dose 16.5 mg/m^2, N 5, Median): 21.82 h
A ([1]; dose 16.5 mg/m^2, N 5, Min): 263.49 ng/mL
AUC ([1]; dose 16.5 mg/m^2, N 5, Min): 511.26
B ([1]; dose 16.5 mg/m^2, N 5, Min): 6.64 ng/mL
Cmax ([1]; dose 16.5 mg/m^2, N 5, Min): 96.35 ng/mL
T1/2 al ([1]; dose 16.5 mg/m^2, N 5, Min): 7.8 min
T1/2 be ([1]; dose 16.5 mg/m^2, N 5, Min): 8.21 h
A ([1]; dose 21 mg/m^2, N 3, Max): 1197.78 ng/mL
AUC ([1]; dose 21 mg/m^2, N 3, Max): 1402.11
B ([1]; dose 21 mg/m^2, N 3, Max): 28.54 ng/mL
Cmax ([1]; dose 21 mg/m^2, N 3, Max): 340.46 ng/mL
T1/2 al ([1]; dose 21 mg/m^2, N 3, Max): 23.4 min
T1/2 be ([1]; dose 21 mg/m^2, N 3, Max): 30.50 h
A ([1]; dose 21 mg/m^2, N 3, Mean): 774.37 ng/mL
AUC ([1]; dose 21 mg/m^2, N 3, Mean): 1094.91
B ([1]; dose 21 mg/m^2, N 3, Mean): 25.92 ng/mL
Cmax ([1]; dose 21 mg/m^2, N 3, Mean): 257.21 ng/mL
T1/2 al ([1]; dose 21 mg/m^2, N 3, Mean): 15.6 min
T1/2 be ([1]; dose 21 mg/m^2, N 3, Mean): 22.88 h
A ([1]; dose 21 mg/m^2, N 3, Median): 802.43 ng/mL
AUC ([1]; dose 21 mg/m^2, N 3, Median): 964.03
B ([1]; dose 21 mg/m^2, N 3, Median): 24.72 ng/mL
Cmax ([1]; dose 21 mg/m^2, N 3, Median): 252.10 ng/mL
T1/2 al ([1]; dose 21 mg/m^2, N 3, Median): 12 min
T1/2 be ([1]; dose 21 mg/m^2, N 3, Median): 19.15 h
A ([1]; dose 21 mg/m^2, N 3, Min): 322.90 ng/mL
AUC ([1]; dose 21 mg/m^2, N 3, Min): 918.58
B ([1]; dose 21 mg/m^2, N 3, Min): 24.50 ng/mL
Cmax ([1]; dose 21 mg/m^2, N 3, Min): 179.07 ng/mL
T1/2 al ([1]; dose 21 mg/m^2, N 3, Min): 11.4 min
T1/2 be ([1]; dose 21 mg/m^2, N 3, Min): 19.00 h
A ([1]; dose 25 mg/m^2, N 6, Max): 1952.78 ng/mL
AUC ([1]; dose 25 mg/m^2, N 6, Max): 1202.01
B ([1]; dose 25 mg/m^2, N 6, Max): 48.76 ng/mL
Cmax ([1]; dose 25 mg/m^2, N 6, Max): 368.79 ng/mL
T1/2 al ([1]; dose 25 mg/m^2, N 6, Max): 21.6 min
T1/2 be ([1]; dose 25 mg/m^2, N 6, Max): 16.29 h
A ([1]; dose 25 mg/m^2, N 6, Mean): 1122.91 ng/mL
AUC ([1]; dose 25 mg/m^2, N 6, Mean): 764.83
B ([1]; dose 25 mg/m^2, N 6, Mean): 34.51 ng/mL
Cmax ([1]; dose 25 mg/m^2, N 6, Mean): 273.43 ng/mL
T1/2 al ([1]; dose 25 mg/m^2, N 6, Mean): 10.8 min
T1/2 be ([1]; dose 25 mg/m^2, N 6, Mean): 10.68 h
A ([1]; dose 25 mg/m^2, N 6, Median): 1062.6 ng/mL
AUC ([1]; dose 25 mg/m^2, N 6, Median): 750.85
B ([1]; dose 25 mg/m^2, N 6, Median): 35.06 ng/mL
Cmax ([1]; dose 25 mg/m^2, N 6, Median): 287.71 ng/mL
T1/2 al ([1]; dose 25 mg/m^2, N 6, Median): 9.6 min
T1/2 be ([1]; dose 25 mg/m^2, N 6, Median): 10.54 h
A ([1]; dose 25 mg/m^2, N 6, Min): 379.79 ng/mL
AUC ([1]; dose 25 mg/m^2, N 6, Min): 436.85
B ([1]; dose 25 mg/m^2, N 6, Min): 20.78 ng/mL
Cmax ([1]; dose 25 mg/m^2, N 6, Min): 108.52 ng/mL
T1/2 al ([1]; dose 25 mg/m^2, N 6, Min): 6.6 min
T1/2 be ([1]; dose 25 mg/m^2, N 6, Min): 6.73 h
A ([1]; dose 30 mg/m^2, N 1, Value): 3559.02 ng/mL
AUC ([1]; dose 30 mg/m^2, N 1, Value): 1797.92
B ([1]; dose 30 mg/m^2, N 1, Value): 36.71 ng/mL
Cmax ([1]; dose 30 mg/m^2, N 1, Value): 571.08 ng/mL
T1/2 al ([1]; dose 30 mg/m^2, N 1, Value): 6 min
T1/2 be ([1]; dose 30 mg/m^2, N 1, Value): 23.83 h
toxicities [2]: reversible myelosupression and gastrointestinal toxicities
IC50 [3]: 4 µM
IC50 ([4]; drug exposure time 72 hours, range over H460, C-4, K562, A431): 20 to 24 nM
fold less active than Navelbine in vitro ([4]; same cell lines): approximately 10 fold

CC[C@]1(O)C[C@H]2CN(CCc3c([nH]c4ccccc34)[C@@](C(=O)OC)(c3cc4c(cc3OC)N(C=O)[C@H]3[C@@](O)(C(=O)OC)[C@H](OC(C)=O)[C@]5(CC)C=CCN6CC[C@]43[C@@H]65)C2)C1 [Vincristine, Sulfate of 22-oxovincaleukoblastine]
uptake into nerves, times faster than the other drugs [5]: 4 times
